Holding throughout (format): in vivo, Sprague-Dawley male rats
In experiment [1] the test system is MCAo30 acute stroke (cerebral infarction) model. The experiment in a line: Measurement of infarction volume (TTC staining) after middle cerebral artery occlusion. The following applies: relative to MCAo30 (100% stroke range basis); i.p. sildenafil citrate 20 mg/kg and/or GSK429286A 10 mg/kg, 30 min before or after reperfusion; combination value for both before/after groups. The protocol: 8-week-old Sprague-Dawley male rats weighing 260 to 280 g were used as experimental animals, and the experimental animals were obtained from the Experimental Animal Center, at Soonchunhyang University (Cheonan). All experimental animals were arbitrarily provided with commercially available feed and water under specific temperature, humidity and lighting conditions (light-dark cycle 12:12, 22±2° C., 55±5%). All animal protocols were approved by the Administrative Panel on Laboratory Animal Care of Soonchunhyang University (permit No. SCH16-0024). In performing experiments related to the present invention, all possible efforts were made to prevent the suffering of the experimental animals and to minimize the number of experimental animals used during the experiments. […] Finally, images were produced from TTC-stained coronal section brain slices using a model DP72 digital camera and DP2-BSW microscope digital camera software (Olympus, Japan), the area of ischemic brain damage in each brain slice was measured using image analysis software (ImageJ, NIH, USA). […] The volume of total cerebral infarction was the sum of the core and the ischemic penumbra, the damaged volume was calculated as an average percentage of the hemispherical volume, and the volume of edema was adjusted with reference to the results of previous studies. […]

Experiment [2] has the same test system. In words: Open field test (locomotor activity). The settings on record: normal control = 100% (MCAo30 57.4%), combination given after reperfusion.
Procedure: 8-week-old Sprague-Dawley male rats weighing 260 to 280 g were used as experimental animals, and the experimental animals were obtained from the Experimental Animal Center, at Soonchunhyang University (Cheonan). All experimental animals were arbitrarily provided with commercially available feed and water under specific temperature, humidity and lighting conditions (light-dark cycle 12:12, 22±2° C., 55±5%). […] In performing experiments related to the present invention, all possible efforts were made to prevent the suffering of the experimental animals and to minimize the number of experimental animals used during the experiments. […] More specifically, the following experimental drugs were each intraperitoneally administered 30 minutes before reperfusion after middle cerebral artery occlusion and 30 minutes after reperfusion after middle cerebral artery occlusion. i) sildenafil citrate (20 mg/kg/saline, Hanmi Parm. […] An open field black box (60×60×40 cm; length, width, height) was placed in an isolated room without clues, and the experimental animals were placed in the central area of the open field box under diffused light. The distance traveled by the experimental animals was recorded and analyzed for 30 minutes using Ethovision® software, which is a PC-based video motion analysis system. […]
Experiment [3] shares this test system. In words: Light-dark box test (anxiety level). The settings on record: normal control = 100% (MCAo30 62.08%), combination given after reperfusion.
Procedure: 8-week-old Sprague-Dawley male rats weighing 260 to 280 g were used as experimental animals, and the experimental animals were obtained from the Experimental Animal Center, at Soonchunhyang University (Cheonan). All experimental animals were arbitrarily provided with commercially available feed and water under specific temperature, humidity and lighting conditions (light-dark cycle 12:12, 22±2° C., 55±5%). All animal protocols were approved by the Administrative Panel on Laboratory Animal Care of Soonchunhyang University (permit No. SCH16-0024). […] More specifically, the following experimental drugs were each intraperitoneally administered 30 minutes before reperfusion after middle cerebral artery occlusion and 30 minutes after reperfusion after middle cerebral artery occlusion. i) sildenafil citrate (20 mg/kg/saline, Hanmi Parm. Co., Republic of Korea) ii) GSK429286A (10 mg/kg/DMSO, Sigma, USA) iii) sildenafil citrate (20 mg/kg/saline) and GSK429286A (10 mg/kg/DMSO) A light-dark box (45×27×27 cm; length, width, height) was divided into two compartments, and more specifically, three-fifths was a bright compartment and two-fifths was a dark compartment. Each compartment was connected by a 9×9 cm entrance located on the floor. […] Here, sildenafil and the ROCK inhibitor were co-administered after reperfusion after middle cerebral artery occlusion.
The test system is the same in experiment [4]. In words: Barnes maze test (cognitive function, escape time). The following applies: compared to normal control, MCAo30 about 3-fold longer than normal control.
Procedure: All experimental animals were arbitrarily provided with commercially available feed and water under specific temperature, humidity and lighting conditions (light-dark cycle 12:12, 22±2° C., 55±5%). […] Co., Republic of Korea) ii) GSK429286A (10 mg/kg/DMSO, Sigma, USA) iii) sildenafil citrate (20 mg/kg/saline) and GSK429286A (10 mg/kg/DMSO) A Barnes maze consisted of a circular platform (122 cm in diameter) with 20 holes around the same distance and elevated 105 cm from the floor. Four different visual cues were placed on each quadrant wall surrounding the platform at a height that makes it easy to observe experimental animals, and one hole (escape hole) in the quadrant area includes an escape chamber under the platform. Further, bedding was added to the escape chamber for the safety of experimental animals. […] More specifically, a metronome was used to generate 80 Hz noise and to maintain the illuminance measured at the center of the platform at 300 lux. […] 10 seconds later, when the cylinder was removed, the experimental animal explored the platform from the center and this activity was recorded by a video camera. […] The distance and duration traveled from the quadrant area where the escape chamber connected to the escape hole is located was analyzed by Ethovision® software, and the waiting time to reach the escape chamber connected to the escape hole was manually analyzed.
Experiment [5] shares this test system. The experiment in a line: Measurement of fEPSP slope (synaptic plasticity, hippocampal CA1 LTP). The settings on record: for fEPSP slope: MCAo30 84.11%.
Procedure: 8-week-old Sprague-Dawley male rats weighing 260 to 280 g were used as experimental animals, and the experimental animals were obtained from the Experimental Animal Center, at Soonchunhyang University (Cheonan). All experimental animals were arbitrarily provided with commercially available feed and water under specific temperature, humidity and lighting conditions (light-dark cycle 12:12, 22±2° C., 55±5%). […] More specifically, the following experimental drugs were each intraperitoneally administered 30 minutes before reperfusion after middle cerebral artery occlusion and 30 minutes after reperfusion after middle cerebral artery occlusion. i) sildenafil citrate (20 mg/kg/saline, Hanmi Parm. Co., Republic of Korea) ii) GSK429286A (10 mg/kg/DMSO, Sigma, USA) iii) sildenafil citrate (20 mg/kg/saline) and GSK429286A (10 mg/kg/DMSO) Field potentials (fEPSP) were recorded at a slightly modified part from CA1 of the hippocampus. After a behavioral test, the animals were anesthetized intraperitoneally using urethane (1.5 g/kg) and placed in a stereotaxic frame. The rectal temperature during surgery was maintained at 37±0.3° C. using a temperature controller (Harvard Instruments, USA). Next, the scalp was opened and separated, and a hole was made through the skull to introduce electrodes. The coordinates (in mm) based on bregma (a junction of the coronal suture and the sagittal suture in the skull) are as follows. […] The depth of the electrodes was finally determined by observing whether the induced response was optimized. The fEPSP was adjusted to about 60% of the maximum response size for testing, and stimuli were generated by a BNC-2110 apparatus (National Instruments, USA) and a Digital Stimulus Isolation unit (Getting Instruments, CA, USA). The response of pyramidal neurons to the Schaffer collateral stimulus was recorded using a [MUT].C. pre-amplifier (3-1000 Hz bandpass, Astro-Med Inc.) and analyzed using […] . […] A stable baseline was recorded for 30 minutes to 60 minutes. […] The response of fEPSP for the age-matched control was also measured using the same method.

Where a name gives a salt, the structure may show the parent alone.

Regarding `CC1=C(C(=O)Nc2cc3cn[nH]c3cc2F)C(c2ccc(C(F)(F)F)cc2)CC(=O)N1` (stereo not shown) [ROCK inhibitor, N-(6-fluoro-1H-indazol-5-yl)-6-methyl-2-oxo-4-[4-(trifluoromethyl)phenyl]-3,4-dihydro-1H-pyridine-5-carboxamide], in experiment [1], the “damage to brain tissue after the onset of stroke (infarction volume)” value amounted to 21.28%. Further, in experiment [2], the locomotor activity is on record as 71%. Also, in experiment [3], the “time in which rats stayed in a bright place compared to the normal control” value is recorded as 84.26%. Moreover, the “escape time (in words)” value in experiment [4] is “level similar to that of the normal control”.

Turning to `CCCc1nn(C)c2c(=O)[nH]c(-c3cc(S(=O)(=O)N4CCN(C)CC4)ccc3OCC)nc12` [sildenafil, sildenafil citrate], in experiment [1], the “damage to brain tissue after the onset of stroke (infarction volume)” value worked out at 26.71%. Also, the locomotor activity in experiment [2] stood at 70.8%. Moreover, the “time in which rats stayed in a bright place compared to the normal control” value in experiment [3] is on record as 63.63%. The values for the fEPSP slope in experiment [5] (administered after reperfusion after middle cerebral artery occlusion) and in experiment [5] (administered before reperfusion after middle cerebral artery occlusion) were 158.31% and 102.35%, respectively. For the same molecule, in experiment [5] (sildenafil alone, after vs before reperfusion), the “fold improved fEPSP slope, group after reperfusion compared to group before reperfusion” value is given as “about 4.06 fold”.
